In paper PMC2895764 (Journal of molecular biology, 2010):

Experiments:
NIH 3T3 cell = test: Reactivation of K-ras-mediated epigenetic silencing of Fas gene; format: cell-based
G9a-like protein (GLP) = settings: cited from earlier work

| Compound | reactivation (derepression) of Ras-mediated epigenetic silencing of Fas (NIH 3T3 cell) | IC50 against GLP (G9a-like protein (GLP)) |
| --- | --- | --- |
| Nc1ncn([C@H]2C[C@H](O)[C@@H](CO)O2)c(=O)n1 [5-aza, 5-aza-2′-deoxycytidine] | derepressed |  |
| COc1cc2nc(N3CCCN(C)CC3)nc(NC3CCN(Cc4ccccc4)CC3)c2cc1OC [BIX-01294] | derepressed | low μM range |
